Reference: patent US7846905B2, “Agent for inhibiting visceral fat accumulation” (Morinaga Milk Industry Co., Ltd., priority 2005, dated 2010)

Columns and labels:
[1] = system: ZDF (Zucker Diabetic Fatty) rats; assay: Inhibitory effect on visceral fat accumulation: mesenteric fat weight in ZDF rats (Example 1); type: in vivo; settings: for Mesenteric fat weight: ZDF rats on high-fat diet, oral once a day for 44 days, measured on 45th day, A-1 25 μg/kg, A-2 2.5 μg/kg compound, B-1 2.5 g/kg, B-2 0.125 g/kg Aloe vera solid content; for Mesenteric fat weight as compared with the group administered with the negative sample (decrease to) / Effect of inhibiting visceral fat accumulation (statistical significance, Tukey-Kramer's test): ZDF rats, 45th day; for Mesenteric fat weight as compared with the group administered with the negative sample (decrease to): negative sample 6.83±1.10 g; for Effect of inhibiting visceral fat accumulation (statistical significance, Tukey-Kramer's test): versus negative sample
Description: The squeezed liquid of Aloe vera gel was diluted 20 folds to prepare Test Sample B-2.
On 45th day from the initiation of the administration, mesenteric fat weights were measured as the visceral fat.

[2] = rat, in vivo
Description: This example was performed in order to investigate an effect of 3-O-β-D-glucopyranosyl-4-methylergost-7-en-3-ol and a squeezed liquid of Aloe vera on an amount of food ingestion (amount of food consumption) and increase in body weight (amount of increased body weight) of rats.
The sample was dissolved in DMSO, and the concentration of the sample was adjusted with distilled water to 10 μg/ml, to thereby prepare Test Sample C. Meanwhile, a crude solution was obtained by crushing Aloe vera gel with a juicer, and then was subjected to filtration with a No. 200 mesh (manufactured by NBC), to thereby obtain a squeezed liquid of the Aloe vera gel as Test Sample D. It was confirmed that the crush extract of Aloe vera gel contained 0.1% of 3-O-β-D-glucopyranosyl-4-methylergost-7-en-3-ol by mass. In addition, final concentration of DMSO was adjusted to 0.2%. […]
42 days after initiation of the administration, the body weights of the rats were measured, and differences between the body weights on the 42nd day and those measured before the initiation of the administration were regarded as amounts of increased body weights. In addition, weights of food consumed per day were measured once a week from the day of the initiation of the administration, and an average of the weights was regarded as an amount of food consumption per day.

hemoglobin A1c level = settings: WO 2005/095436; cited from earlier work

| SMILES | Mesenteric fat weight [1] [g] | Mesenteric fat weight as compared with the group administered with the negative sample (decrease to) [1] [%] | Effect of inhibiting visceral fat accumulation (statistical significance, Tukey-Kramer's test) [1] | Amount of food consumption as compared with the negative sample group [2] | Effect on hemoglobin A1c level and hyperglycemia (hemoglobin A1c level) |
| --- | --- | --- | --- | --- | --- |
| CC(C)C(C)CCC(C)C1CCC2C3=CCC4C(C)C(OC5OC(CO)C(O)C(O)C5O)CCC4(C)C3CCC21C [Test Sample A-1, 3-O-β-D-glucopyranosyl-4-methylergost-7-en-3-ol] | 3.15 ± 0.28 | 46.2 | statistically significant effects of inhibiting visceral fat accumulation | – | – |
| CC(C)C(C)CCC(C)C1CCC2C3=CCC4C(C)C(OC5OC(CO)C(O)C(O)C5O)CCC4(C)C3CCC21C [Test Sample A-2, 3-O-β-D-glucopyranosyl-4-methylergost-7-en-3-ol] | 4.99 ± 0.53 | 73.1 | statistically significant effects of inhibiting visceral fat accumulation | – | – |
| CC(C)C(C)CCC(C)C1CCC2C3=CCC4C(C)C(OC5OC(CO)C(O)C(O)C5O)CCC4(C)C3CCC21C [Test Sample C, 3-O-β-D-glucopyranosyl-4-methylergost-7-en-3-ol] | – | – | – | did not show significant increase or decrease in amount of food consumption | – |
| CC(C)C(C)CCC(C)C1CCC2C3=CCC4C(C)C(OC5OC(CO)C(O)C(O)C5O)CCC4(C)C3CCC21C [Compound 1, 3-O-β-D-glucopyranosyl-4-methylergost-7-en-3-ol] | – | – | – | does not affect the amount of food ingestion | effect of decreasing hemoglobin A1c level and improving hyperglycemia |
